Earlier results as cited in patent US10988420B2, “Nanoparticles of layered double hydroxides containing non-polar compounds of plant origin, and method for the separation and selective release of said compounds” (UNIVERSIDAD DE GUADALAJARA, priority 2015, dated 2021).

Settings: lycopene not encapsulated; prior art (Meléndez-Martinez 2004)

SMILES: CC(C)=CCC/C(C)=C/C=C/C(C)=C/C=C/C(C)=C/C=C/C=C(C)/C=C/C=C(C)/C=C/C=C(\C)CCC=C(C)C [lycopene]
- temperature at which lycopene is decomposed: 100-150 °C
